In the NIST ThermoML archive (doi:10.1021/je8003035):
± gives the expanded uncertainty stated by the source.

Experiments:
[1] = xn = mol fraction of the nth substance listed; conditions: 1800 kPa, Liquid, Vibrating tube method
[2] = molar heat capacity at constant pressure; wn = mass fraction of the nth substance listed; conditions: 1800 kPa, Liquid, Small sample (50 mg) DSC
[3] = wn = mass fraction of the nth substance listed; conditions: 1800 kPa, Liquid, Falling or rolling sphere viscometry

Work on O=[N+]([O-])[O-].[Li+] [lithium nitrate] + N yielded a mass density ([1]; 293.15 K, x2 = 0.3501) of 1188.8 ± 0.8 kg/m3, a mass density ([1]; 293.15 K, x2 = 0.3988) of 1134.2 ± 0.8 kg/m3 and a mass density ([1]; 293.15 K, x2 = 0.4499) of 1078.1 ± 0.8 kg/m3. The mass density ([1]; 293.15 K, x2 = 0.5) was 1030 ± 0.8 kg/m3, the mass density ([1]; 293.15 K, x2 = 0.55) was 983.8 ± 0.7 kg/m3 and the mass density ([1]; 293.15 K, x2 = 0.5999) was 939 ± 0.7 kg/m3. It also gave a mass density ([1]; 293.15 K, x2 = 0.6505) of 896.8 ± 0.7 kg/m3, a mass density ([1]; 303.15 K, x2 = 0.3501) of 1181.2 ± 0.8 kg/m3 and a mass density ([1]; 303.15 K, x2 = 0.3988) of 1126.6 ± 0.8 kg/m3. For the same compound, the mass density ([1]; 303.15 K, x2 = 0.4499) was 1070.3 ± 0.8 kg/m3, the mass density ([1]; 303.15 K, x2 = 0.5) was 1022.1 ± 0.8 kg/m3 and the mass density ([1]; 303.15 K, x2 = 0.55) was 975.4 ± 0.7 kg/m3. For the same compound, the mass density ([1]; 303.15 K, x2 = 0.5999) was 929.8 ± 0.7 kg/m3, the mass density ([1]; 303.15 K, x2 = 0.6505) was 886.9 ± 0.7 kg/m3 and the mass density ([1]; 313.15 K, x2 = 0.3501) was 1173.8 ± 0.8 kg/m3. The mass density ([1]; 313.15 K, x2 = 0.3988) was 1119 ± 0.8 kg/m3, the mass density ([1]; 313.15 K, x2 = 0.4499) was 1062.6 ± 0.8 kg/m3 and the mass density ([1]; 313.15 K, x2 = 0.5) was 1014.1 ± 0.8 kg/m3. The mass density ([1]; 313.15 K, x2 = 0.55) was 966.8 ± 0.7 kg/m3, the mass density ([1]; 313.15 K, x2 = 0.5999) was 920.6 ± 0.7 kg/m3 and the mass density ([1]; 313.15 K, x2 = 0.6505) was 876.7 ± 0.7 kg/m3. The mass density ([1]; 323.15 K, x2 = 0.3501) was 1166.6 ± 0.8 kg/m3, the mass density ([1]; 323.15 K, x2 = 0.3988) was 1111.5 ± 0.8 kg/m3 and the mass density ([1]; 323.15 K, x2 = 0.4499) was 1055.1 ± 0.8 kg/m3. For the same compound, the mass density ([1]; 323.15 K, x2 = 0.5) was 1006.1 ± 0.8 kg/m3, the mass density ([1]; 323.15 K, x2 = 0.55) was 958.1 ± 0.7 kg/m3 and the mass density ([1]; 323.15 K, x2 = 0.5999) was 911.2 ± 0.7 kg/m3. The mass density ([1]; 323.15 K, x2 = 0.6505) was 866.6 ± 0.7 kg/m3, the mass density ([1]; 333.15 K, x2 = 0.3501) was 1159.7 ± 0.8 kg/m3 and the mass density ([1]; 333.15 K, x2 = 0.3988) was 1104.1 ± 0.8 kg/m3. It also gave a mass density ([1]; 333.15 K, x2 = 0.4499) of 1047.5 ± 0.8 kg/m3, a mass density ([1]; 333.15 K, x2 = 0.5) of 998 ± 0.8 kg/m3 and a mass density ([1]; 333.15 K, x2 = 0.55) of 949.4 ± 0.7 kg/m3. For the same compound, the mass density ([1]; 333.15 K, x2 = 0.5999) was 901.6 ± 0.7 kg/m3, the mass density ([1]; 343.15 K, x2 = 0.3501) was 1153.1 ± 0.8 kg/m3 and the mass density ([1]; 343.15 K, x2 = 0.3988) was 1096.9 ± 0.8 kg/m3. It also gave a mass density ([1]; 343.15 K, x2 = 0.4499) of 1040 ± 0.8 kg/m3, a mass density ([1]; 343.15 K, x2 = 0.5) of 990.1 ± 0.8 kg/m3 and a mass density ([1]; 343.15 K, x2 = 0.55) of 940.4 ± 0.8 kg/m3. For the same compound, the mass density ([1]; 353.15 K, x2 = 0.3501) was 1146.9 ± 0.8 kg/m3, the mass density ([1]; 353.15 K, x2 = 0.3988) was 1090.2 ± 0.8 kg/m3 and the mass density ([1]; 353.15 K, x2 = 0.4499) was 1032.8 ± 0.8 kg/m3. The mass density ([1]; 353.15 K, x2 = 0.5) was 982.1 ± 0.8 kg/m3, the “molar heat capacity at constant pressure” value ([2]; 312.65 K, w2 = 0.5) was 85.88 ± 1.3 J/K/mol and the “molar heat capacity at constant pressure” value ([2]; 312.67 K, w2 = 0.3501) was 84.48 ± 1.3 J/K/mol. The “molar heat capacity at constant pressure” value ([2]; 312.67 K, w2 = 0.4003) was 84.65 ± 1.3 J/K/mol, the “molar heat capacity at constant pressure” value ([2]; 312.67 K, w2 = 0.4499) was 85.21 ± 1.3 J/K/mol and the “molar heat capacity at constant pressure” value ([2]; 312.67 K, w2 = 0.5497) was 84.75 ± 1.3 J/K/mol. The “molar heat capacity at constant pressure” value ([2]; 322.56 K, w2 = 0.5) was 86.67 ± 1.3 J/K/mol, the “molar heat capacity at constant pressure” value ([2]; 322.57 K, w2 = 0.3501) was 85.61 ± 1.3 J/K/mol and the “molar heat capacity at constant pressure” value ([2]; 322.58 K, w2 = 0.4003) was 85.8 ± 1.3 J/K/mol. The “molar heat capacity at constant pressure” value ([2]; 322.58 K, w2 = 0.4499) was 86.2 ± 1.3 J/K/mol, the “molar heat capacity at constant pressure” value ([2]; 322.58 K, w2 = 0.5497) was 85.55 ± 1.3 J/K/mol and the “molar heat capacity at constant pressure” value ([2]; 332.46 K, w2 = 0.5) was 87.54 ± 1.4 J/K/mol. For the same compound, the “molar heat capacity at constant pressure” value ([2]; 332.48 K, w2 = 0.3501) was 86.65 ± 1.3 J/K/mol, the “molar heat capacity at constant pressure” value ([2]; 332.48 K, w2 = 0.4499) was 87.22 ± 1.3 J/K/mol and the “molar heat capacity at constant pressure” value ([2]; 332.48 K, w2 = 0.5497) was 86.09 ± 1.3 J/K/mol. The “molar heat capacity at constant pressure” value ([2]; 332.49 K, w2 = 0.4003) was 86.7 ± 1.3 J/K/mol, the “molar heat capacity at constant pressure” value ([2]; 342.37 K, w2 = 0.5) was 88.33 ± 1.4 J/K/mol and the “molar heat capacity at constant pressure” value ([2]; 342.38 K, w2 = 0.3501) was 87.52 ± 1.4 J/K/mol. The “molar heat capacity at constant pressure” value ([2]; 342.38 K, w2 = 0.5497) was 86.97 ± 1.3 J/K/mol, the “molar heat capacity at constant pressure” value ([2]; 342.39 K, w2 = 0.4003) was 87.51 ± 1.4 J/K/mol and the “molar heat capacity at constant pressure” value ([2]; 342.39 K, w2 = 0.4499) was 88.09 ± 1.4 J/K/mol. For the same compound, the “molar heat capacity at constant pressure” value ([2]; 352.29 K, w2 = 0.3501) was 88.22 ± 1.4 J/K/mol, the “molar heat capacity at constant pressure” value ([2]; 352.29 K, w2 = 0.4003) was 88.07 ± 1.4 J/K/mol and the “molar heat capacity at constant pressure” value ([2]; 352.31 K, w2 = 0.4499) was 88.59 ± 1.4 J/K/mol. The viscosity ([3]; 293.2 K, w2 = 0.4) was 22.7 ± 0.5 mPa·s, the viscosity ([3]; 293.2 K, w2 = 0.4997) was 7.1 ± 0.4 mPa·s and the viscosity ([3]; 298.2 K, w2 = 0.4) was 18.7 ± 0.5 mPa·s. The viscosity ([3]; 298.2 K, w2 = 0.4997) was 6.1 ± 0.4 mPa·s, the viscosity ([3]; 303.2 K, w2 = 0.4) was 15.5 ± 0.4 mPa·s and the viscosity ([3]; 303.2 K, w2 = 0.4997) was 5.3 ± 0.4 mPa·s. The viscosity ([3]; 308.2 K, w2 = 0.4) was 13 ± 0.4 mPa·s, the viscosity ([3]; 308.2 K, w2 = 0.4997) was 4.7 ± 0.4 mPa·s and the viscosity ([3]; 313.2 K, w2 = 0.4) was 11 ± 0.4 mPa·s. It also gave a viscosity ([3]; 313.2 K, w2 = 0.4997) of 4.1 ± 0.4 mPa·s, a viscosity ([3]; 318.2 K, w2 = 0.4) of 9.3 ± 0.4 mPa·s and a viscosity ([3]; 318.2 K, w2 = 0.4997) of 3.6 ± 0.4 mPa·s. It also gave a viscosity ([3]; 323.2 K, w2 = 0.3) of 18.6 ± 0.4 mPa·s, a viscosity ([3]; 323.2 K, w2 = 0.4) of 8 ± 0.4 mPa·s and a viscosity ([3]; 323.2 K, w2 = 0.4997) of 3.3 ± 0.4 mPa·s. The viscosity ([3]; 328.1 K, w2 = 0.4997) was 2.9 ± 0.4 mPa·s, the viscosity ([3]; 328.2 K, w2 = 0.3) was 15.9 ± 0.4 mPa·s and the viscosity ([3]; 328.2 K, w2 = 0.4) was 6.9 ± 0.4 mPa·s. For the same compound, the viscosity ([3]; 333.1 K, w2 = 0.4997) was 2.6 ± 0.4 mPa·s, the viscosity ([3]; 333.2 K, w2 = 0.3) was 13.8 ± 0.4 mPa·s and the viscosity ([3]; 333.2 K, w2 = 0.4) was 6.1 ± 0.4 mPa·s. The viscosity ([3]; 338 K, w2 = 0.4997) was 2.4 ± 0.4 mPa·s, the viscosity ([3]; 338.1 K, w2 = 0.3) was 11.9 ± 0.4 mPa·s and the viscosity ([3]; 338.1 K, w2 = 0.4) was 5.4 ± 0.4 mPa·s. The viscosity ([3]; 343 K, w2 = 0.4997) was 2.2 ± 0.4 mPa·s, the viscosity ([3]; 343.1 K, w2 = 0.3) was 10.9 ± 0.4 mPa·s and the viscosity ([3]; 343.1 K, w2 = 0.4) was 4.8 ± 0.4 mPa·s. It also gave a viscosity ([3]; 348.1 K, w2 = 0.3) of 9 ± 0.4 mPa·s, a viscosity ([3]; 348.2 K, w2 = 0.4) of 4.3 ± 0.4 mPa·s and a viscosity ([3]; 353.1 K, w2 = 0.4) of 3.8 ± 0.4 mPa·s. For the same compound, the viscosity ([3]; 353.2 K, w2 = 0.3) was 7.9 ± 0.4 mPa·s.
